Measured values from the NIST ThermoML archive (doi:10.1007/s10765-010-0902-x).
Numbers after ± are expanded uncertainties.

Tests used:
[1] = refractive index (Na D-line) (dimensionless); details: 298.15 K; 101.33 kPa; Liquid; Standard Abbe refractometry
[2] = 298.15 K; 101 kPa; Liquid
[3] = xn = mol fraction of the nth substance listed; details: 298.15 K, 101 kPa, Liquid; for viscosity: Capillary tube (Ostwald / Ubbelohde) method
[4] = refractive index (Na D-line) (dimensionless); xn = mol fraction of the nth substance listed; details: 298.15 K, 101 kPa, Liquid, Standard Abbe refractometry

CCCCCl [1-chlorobutane]
Details	mass density [kg/m3]	refractive index
[1]	–	1.3996 ± 0.0004
[2]	880.87 ± 0.35	–

CCCCCl [1-chlorobutane] + CCCCOC(C)=O
Details	mass density, [3] [kg/m3]	refractive index, [4]	viscosity, [3] [mPa·s]
x2 = 0	880.87 ± 0.35	1.3996 ± 0.0004	–
x2 = 0.0503	880.41 ± 0.35	1.3989 ± 0.0004	0.42 ± 0.005
x2 = 0.1111	879.89 ± 0.35	1.3981 ± 0.0004	0.432 ± 0.005
x2 = 0.1527	879.56 ± 0.35	1.3976 ± 0.0004	0.441 ± 0.005
x2 = 0.2003	879.19 ± 0.35	1.3971 ± 0.0004	0.451 ± 0.005
x2 = 0.2996	878.52 ± 0.35	1.3961 ± 0.0004	0.473 ± 0.005
x2 = 0.3493	878.23 ± 0.35	1.3956 ± 0.0004	0.484 ± 0.005
x2 = 0.3978	877.97 ± 0.35	1.3952 ± 0.0004	0.495 ± 0.005
x2 = 0.4508	877.72 ± 0.35	1.3947 ± 0.0004	0.507 ± 0.005
x2 = 0.4997	877.51 ± 0.35	1.3943 ± 0.0004	0.519 ± 0.005
x2 = 0.55	877.31 ± 0.35	1.3939 ± 0.0004	0.531 ± 0.005
x2 = 0.5985	877.15 ± 0.35	1.3936 ± 0.0004	0.543 ± 0.005
x2 = 0.6501	876.99 ± 0.35	1.3933 ± 0.0004	0.555 ± 0.005
x2 = 0.7002	876.84 ± 0.35	1.393 ± 0.0004	0.568 ± 0.006
x2 = 0.7493	876.72 ± 0.36	1.3928 ± 0.0004	0.58 ± 0.006
x2 = 0.8042	876.6 ± 0.36	1.3925 ± 0.0004	0.594 ± 0.006
x2 = 0.85	876.51 ± 0.36	1.3923 ± 0.0004	0.606 ± 0.006
x2 = 0.8991	876.43 ± 0.36	1.3921 ± 0.0004	0.619 ± 0.006

CCCCCCCCl [1-chloroheptane]
Details	mass density [kg/m3]	refractive index
[1]	–	1.4236 ± 0.0004
[2]	872.79 ± 0.36	–

CCCCCCCCl [1-chloroheptane] + CCCCOC(C)=O
Details	mass density, [3] [kg/m3]	refractive index, [4]	viscosity, [3] [mPa·s]
x2 = 0	872.79 ± 0.36	1.4236 ± 0.0004	–
x2 = 0.0505	872.6 ± 0.36	1.4219 ± 0.0004	0.828 ± 0.007
x2 = 0.1006	872.52 ± 0.36	1.4203 ± 0.0004	0.815 ± 0.007
x2 = 0.1503	872.45 ± 0.36	1.4189 ± 0.0004	0.803 ± 0.006
x2 = 0.2014	872.41 ± 0.36	1.4175 ± 0.0004	0.792 ± 0.006
x2 = 0.3003	872.39 ± 0.36	1.4147 ± 0.0004	0.77 ± 0.006
x2 = 0.3505	872.42 ± 0.36	1.4133 ± 0.0004	0.759 ± 0.006
x2 = 0.4007	872.48 ± 0.36	1.4118 ± 0.0004	0.749 ± 0.006
x2 = 0.4503	872.56 ± 0.36	1.4103 ± 0.0004	0.739 ± 0.006
x2 = 0.5006	872.71 ± 0.36	1.4087 ± 0.0004	0.729 ± 0.006
x2 = 0.6001	873.07 ± 0.36	1.4054 ± 0.0004	0.71 ± 0.006
x2 = 0.65	873.32 ± 0.36	1.4037 ± 0.0004	0.7 ± 0.006
x2 = 0.6996	873.64 ± 0.36	1.402 ± 0.0004	0.691 ± 0.006
x2 = 0.7499	873.97 ± 0.36	1.4003 ± 0.0004	0.682 ± 0.006
x2 = 0.8001	874.32 ± 0.36	1.3986 ± 0.0004	0.674 ± 0.006
x2 = 0.9	875.2 ± 0.36	1.3952 ± 0.0004	0.659 ± 0.006

CCCCCCCl [1-chlorohexane]
Details	mass density [kg/m3]	refractive index
[1]	–	1.4171 ± 0.0004
[2]	873.39 ± 0.47	–

CCCCCCCl [1-chlorohexane] + CCCCOC(C)=O
Details	mass density, [3] [kg/m3]	refractive index, [4]	viscosity, [3] [mPa·s]
x2 = 0	873.39 ± 0.47	1.4171 ± 0.0004	–
x2 = 0.0568	873.06 ± 0.47	1.4159 ± 0.0004	0.662 ± 0.007
x2 = 0.1099	872.97 ± 0.46	1.4148 ± 0.0004	0.659 ± 0.006
x2 = 0.1638	872.88 ± 0.45	1.4137 ± 0.0004	0.657 ± 0.006
x2 = 0.2188	872.81 ± 0.44	1.4125 ± 0.0004	0.655 ± 0.006
x2 = 0.3237	872.8 ± 0.43	1.4102 ± 0.0004	0.652 ± 0.006
x2 = 0.3745	872.83 ± 0.42	1.4091 ± 0.0004	0.651 ± 0.006
x2 = 0.4271	872.87 ± 0.42	1.4078 ± 0.0004	0.65 ± 0.006
x2 = 0.4773	872.98 ± 0.41	1.4066 ± 0.0004	0.649 ± 0.006
x2 = 0.5286	873.11 ± 0.4	1.4053 ± 0.0004	0.648 ± 0.006
x2 = 0.6265	873.53 ± 0.39	1.4028 ± 0.0004	0.646 ± 0.006
x2 = 0.6753	873.78 ± 0.39	1.4015 ± 0.0004	0.645 ± 0.006
x2 = 0.7232	874.04 ± 0.38	1.4001 ± 0.0004	0.645 ± 0.006
x2 = 0.8171	874.66 ± 0.37	1.3973 ± 0.0004	0.645 ± 0.006
x2 = 0.8631	875.01 ± 0.37	1.3959 ± 0.0004	0.645 ± 0.006

CCCCCCCCCl [1-chlorooctane]
Details	mass density [kg/m3]	refractive index
[1]	–	1.4282 ± 0.0004
[2]	868.71 ± 0.37	–

CCCCCCCCCl [1-chlorooctane] + CCCCOC(C)=O
Details	mass density, [3] [kg/m3]	refractive index, [4]	viscosity, [3] [mPa·s]
x2 = 0	868.71 ± 0.37	1.4282 ± 0.0004	–
x2 = 0.0507	868.69 ± 0.37	1.4271 ± 0.0004	1.032 ± 0.008
x2 = 0.1002	868.7 ± 0.37	1.4264 ± 0.0004	1.007 ± 0.007
x2 = 0.1498	868.74 ± 0.37	1.4256 ± 0.0004	0.981 ± 0.007
x2 = 0.1999	868.73 ± 0.37	1.4247 ± 0.0004	0.959 ± 0.007
x2 = 0.3001	868.77 ± 0.37	1.4222 ± 0.0004	0.911 ± 0.007
x2 = 0.3496	868.82 ± 0.37	1.4208 ± 0.0004	0.889 ± 0.007
x2 = 0.4001	868.99 ± 0.37	1.4192 ± 0.0004	0.867 ± 0.007
x2 = 0.4503	869.17 ± 0.37	1.4174 ± 0.0004	0.846 ± 0.007
x2 = 0.5	869.45 ± 0.37	1.4156 ± 0.0004	0.825 ± 0.007
x2 = 0.6019	870.13 ± 0.36	1.4114 ± 0.0004	0.784 ± 0.006
x2 = 0.6999	871.1 ± 0.36	1.4069 ± 0.0004	0.745 ± 0.006
x2 = 0.7998	872.48 ± 0.36	1.4018 ± 0.0004	0.708 ± 0.006
x2 = 0.8999	874.25 ± 0.36	1.3968 ± 0.0004	0.674 ± 0.006

CCCCCCl [1-chloropentane]
Details	mass density [kg/m3]	refractive index
[1]	–	1.4097 ± 0.0004
[2]	876.93 ± 0.47	–

CCCCCCl [1-chloropentane] + CCCCOC(C)=O
Details	mass density, [3] [kg/m3]	refractive index, [4]	viscosity, [3] [mPa·s]
x2 = 0	876.93 ± 0.47	1.4097 ± 0.0004	–
x2 = 0.05	876.71 ± 0.46	1.4081 ± 0.0004	0.55 ± 0.006
x2 = 0.1	876.44 ± 0.45	1.4065 ± 0.0004	0.552 ± 0.006
x2 = 0.15	876.14 ± 0.45	1.405 ± 0.0004	0.554 ± 0.006
x2 = 0.2	875.89 ± 0.44	1.4036 ± 0.0004	0.557 ± 0.006
x2 = 0.3	875.46 ± 0.43	1.401 ± 0.0004	0.563 ± 0.006
x2 = 0.35	875.29 ± 0.42	1.3998 ± 0.0004	0.567 ± 0.006
x2 = 0.4	875.2 ± 0.42	1.3987 ± 0.0004	0.571 ± 0.006
x2 = 0.5	875.11 ± 0.4	1.3967 ± 0.0004	0.58 ± 0.006
x2 = 0.6	875.15 ± 0.39	1.395 ± 0.0004	0.591 ± 0.006
x2 = 0.7019	875.34 ± 0.38	1.3936 ± 0.0004	0.603 ± 0.006
x2 = 0.75	875.48 ± 0.38	1.3931 ± 0.0004	0.61 ± 0.006
x2 = 0.7998	875.62 ± 0.37	1.3926 ± 0.0004	0.616 ± 0.006
x2 = 0.9	875.94 ± 0.36	1.3921 ± 0.0004	0.631 ± 0.006

CCCCOC(C)=O [butyl ethanoate]
Details	mass density [kg/m3]	refractive index
[1]	–	1.3918 ± 0.0004
[2]	876.28 ± 0.36	–

CCCCOC(C)=O [butyl ethanoate] + CCCCCCCCCl
x1 = 1
Details	mass density [kg/m3]	refractive index
[3]	876.28 ± 0.36	–
[4]	–	1.3918 ± 0.0004

CCCCOC(C)=O [butyl ethanoate] + CCCCCCCCl
x1 = 1
Details	mass density [kg/m3]	refractive index
[3]	876.28 ± 0.36	–
[4]	–	1.3918 ± 0.0004

CCCCOC(C)=O [butyl ethanoate] + CCCCCCCl
x1 = 1
Details	mass density [kg/m3]	refractive index
[3]	876.28 ± 0.36	–
[4]	–	1.3918 ± 0.0004

CCCCOC(C)=O [butyl ethanoate] + CCCCCCl
x1 = 1
Details	mass density [kg/m3]	refractive index
[3]	876.28 ± 0.36	–
[4]	–	1.3918 ± 0.0004

CCCCOC(C)=O [butyl ethanoate] + CCCCCl
x1 = 1
Details	mass density [kg/m3]	refractive index
[3]	876.28 ± 0.36	–
[4]	–	1.3918 ± 0.0004
